Legend:
[1] = The drug is tested on Z-011 corresponding to mouse gut metagenome with ENA study accession number: PRJEB37062 and ENA sample accession number: ERS12561811 for biotransformation under anaerobic condition. The drug concentrations were measured over 9 timepoints collected between 0 and 24 hours of incubation by liquid-chromatography-coupled mass spectrometry (LC–MS); conditions: 2 µM
[2] = The drug is tested on Z-024 corresponding to pig gut metagenome with ENA study accession number: PRJEB37062 and ENA sample accession number: ERS12561823 for biotransformation under anaerobic condition. The drug concentrations were measured over 9 timepoints collected between 0 and 24 hours of incubation by liquid-chromatography-coupled mass spectrometry (LC–MS); conditions: 2 µM
[3] = The drug is tested on WLS-220 corresponding to human gut metagenome with ENA study accession number: PRJEB37062 and ENA sample accession number: ERS12561769 for biotransformation under anaerobic condition. The drug concentrations were measured over 9 timepoints collected between 0 and 24 hours of incubation by liquid-chromatography-coupled mass spectrometry (LC–MS); conditions: 2 µM
[4] = human gut metagenome, 24 h, 2 µM
[5] = The drug is tested on WLS-069 corresponding to human gut metagenome with ENA study accession number: PRJEB37062 and ENA sample accession number: ERS12561748 for biotransformation under anaerobic condition. The drug concentrations were measured over 9 timepoints collected between 0 and 24 hours of incubation by liquid-chromatography-coupled mass spectrometry (LC–MS); conditions: 2 µM
[6] = human gut metagenome, 24 h, 2 µM; remark: listed apart in the source
[7] = The drug is tested on Z-028 corresponding to mouse gut metagenome with ENA study accession number: PRJEB37062 and ENA sample accession number: ERS12561827 for biotransformation under anaerobic condition. The drug concentrations were measured over 9 timepoints collected between 0 and 24 hours of incubation by liquid-chromatography-coupled mass spectrometry (LC–MS); conditions: 2 µM
[8] = The drug is tested on Z-012 corresponding to metagenome with ENA study accession number: PRJEB37062 and ENA sample accession number: ERS12561812 for biotransformation under anaerobic condition. The drug concentrations were measured over 9 timepoints collected between 0 and 24 hours of incubation by liquid-chromatography-coupled mass spectrometry (LC–MS); conditions: 2 µM
[9] = human gut metagenome, 24 h, 2 µM; remark: listed apart in the source
[10] = human gut metagenome, 24 h, 2 µM; remark: listed apart in the source
[11] = The drug is tested on Z-018 corresponding to pig gut metagenome with ENA study accession number: PRJEB37062 and ENA sample accession number: ERS12561817 for biotransformation under anaerobic condition. The drug concentrations were measured over 9 timepoints collected between 0 and 24 hours of incubation by liquid-chromatography-coupled mass spectrometry (LC–MS); conditions: 2 µM
[12] = The drug is tested on Z-001 corresponding to mouse gut metagenome with ENA study accession number: PRJEB37062 and ENA sample accession number: ERS12561801 for biotransformation under anaerobic condition. The drug concentrations were measured over 9 timepoints collected between 0 and 24 hours of incubation by liquid-chromatography-coupled mass spectrometry (LC–MS); conditions: 2 µM
[13] = human gut metagenome, 24 h, 2 µM; remark: listed apart in the source
[14] = The drug is tested on WLS-052 corresponding to human gut metagenome with ENA study accession number: PRJEB37062 and ENA sample accession number: ERS12561747 for biotransformation under anaerobic condition. The drug concentrations were measured over 9 timepoints collected between 0 and 24 hours of incubation by liquid-chromatography-coupled mass spectrometry (LC–MS); conditions: 2 µM
[15] = The drug is tested on WLS-010 corresponding to human gut metagenome with ENA study accession number: PRJEB37062 and ENA sample accession number: ERS12561743 for biotransformation under anaerobic condition. The drug concentrations were measured over 9 timepoints collected between 0 and 24 hours of incubation by liquid-chromatography-coupled mass spectrometry (LC–MS); conditions: 2 µM
[16] = The drug is tested on WLS-082 corresponding to human gut metagenome with ENA study accession number: PRJEB37062 and ENA sample accession number: ERS12561751 for biotransformation under anaerobic condition. The drug concentrations were measured over 9 timepoints collected between 0 and 24 hours of incubation by liquid-chromatography-coupled mass spectrometry (LC–MS); conditions: 2 µM
[17] = The drug is tested on Z-020 corresponding to rabbit gut metagenome with ENA study accession number: PRJEB37062 and ENA sample accession number: ERS12561819 for biotransformation under anaerobic condition. The drug concentrations were measured over 9 timepoints collected between 0 and 24 hours of incubation by liquid-chromatography-coupled mass spectrometry (LC–MS); conditions: 2 µM
[18] = human gut metagenome, 24 h, 2 µM; remark: listed apart in the source
[19] = human gut metagenome, 24 h, 2 µM; remark: listed apart in the source
[20] = The drug is tested on Z-029 corresponding to rat gut metagenome with ENA study accession number: PRJEB37062 and ENA sample accession number: ERS12561828 for biotransformation under anaerobic condition. The drug concentrations were measured over 9 timepoints collected between 0 and 24 hours of incubation by liquid-chromatography-coupled mass spectrometry (LC–MS); conditions: 2 µM
Further: call rule not given here.

Row | Structure (SMILES) | Bacterial Biotransformation [1] | Bacterial Biotransformation [2] | Bacterial Biotransformation [3] | Bacterial Biotransformation [4] | Bacterial Biotransformation [5] | Bacterial Biotransformation [6] | Bacterial Biotransformation [7] | Bacterial Biotransformation [8] | Bacterial Biotransformation [9] | Bacterial Biotransformation [10] | Bacterial Biotransformation [11] | Bacterial Biotransformation [12] | Bacterial Biotransformation [13] | Bacterial Biotransformation [14] | Bacterial Biotransformation [15] | Bacterial Biotransformation [16] | Bacterial Biotransformation [17] | Bacterial Biotransformation [18] | Bacterial Biotransformation [19] | Bacterial Biotransformation [20]
1 | CC(C)N(CCC(C(N)=O)(c1ccccc1)c1ccccn1)C(C)C.O=P(O)(O)O (stereo not given) [DISOPYRAMIDE PHOSPHATE] | Compound NOT metabolized | Compound NOT metabolized | Compound NOT metabolized | Compound NOT metabolized | Compound NOT metabolized | Compound NOT metabolized | Compound NOT metabolized | Compound NOT metabolized | Compound NOT metabolized | Compound metabolized | Compound NOT metabolized | Compound NOT metabolized | Compound metabolized | Compound NOT metabolized | Compound NOT metabolized | Compound NOT metabolized | Compound NOT metabolized | Compound NOT metabolized | Compound NOT metabolized | Compound NOT metabolized
2 | C[C@@H](CO)NC(=O)[C@@H]1C=C2c3cccc4[nH]cc(c34)C[C@H]2N(C)C1.O=C(O)/C=C\C(=O)O [ERGONOVINE MALEATE] | Compound NOT metabolized | Compound NOT metabolized | Compound NOT metabolized | Compound NOT metabolized | Compound metabolized | Compound metabolized | Compound NOT metabolized | Compound NOT metabolized | Compound NOT metabolized | Compound metabolized | Compound metabolized | Compound NOT metabolized | Compound metabolized | Compound metabolized | Compound metabolized | Compound metabolized | Compound NOT metabolized | Compound NOT metabolized | Compound metabolized | Compound NOT metabolized
3 | CCN(CC)C(C)CN1c2ccccc2Sc2ccccc21 (stereo not given) [ETHOPROPAZINE] | Compound NOT metabolized | Compound metabolized | Compound metabolized | Compound metabolized | Compound metabolized | Compound metabolized | Compound NOT metabolized | Compound metabolized | Compound NOT metabolized | Compound metabolized | Compound metabolized | Compound metabolized | Compound metabolized | Compound metabolized | Compound metabolized | Compound metabolized | Compound NOT metabolized | Compound NOT metabolized | Compound metabolized | Compound NOT metabolized
4 | Cc1nc(-c2ccc(OCC(C)C)c(C#N)c2)sc1C(=O)O [FEBUXOSTAT] | Compound NOT metabolized | Compound metabolized | Compound metabolized | Compound metabolized | Compound metabolized | Compound metabolized | Compound metabolized | Compound NOT metabolized | Compound metabolized | Compound metabolized | Compound metabolized | Compound NOT metabolized | Compound metabolized | Compound metabolized | Compound metabolized | Compound metabolized | Compound metabolized | Compound metabolized | Compound metabolized | Compound NOT metabolized
5 | CC(C)(C(=O)O)c1ccc(C(O)CCCN2CCC(C(O)(c3ccccc3)c3ccccc3)CC2)cc1 (stereo not given) [FEXOFENADINE] | Compound NOT metabolized | Compound metabolized | Compound NOT metabolized | Compound NOT metabolized | Compound NOT metabolized | Compound NOT metabolized | Compound NOT metabolized | Compound NOT metabolized | Compound NOT metabolized | Compound NOT metabolized | Compound NOT metabolized | Compound NOT metabolized | Compound NOT metabolized | Compound NOT metabolized | Compound NOT metabolized | Compound NOT metabolized | Compound NOT metabolized | Compound NOT metabolized | Compound NOT metabolized | Compound NOT metabolized

— ChEMBL document CHEMBL5724914, “Linking interpersonal differences in gut microbiota composition and drug biotransformation activity” (2024)
